# From patent US20250243196A1, “CITRON KINASE INHIBITORS” (The Cleveland Clinic Foundation, priority 2021, published 2025)
# Legend:
# Assay in all cases: KinaseProfiler panel
# Format in all cases: biochemical
# Settings in all cases: activity remaining
# AMPKα2(h) = AMPKα2(h) (Homo sapiens (Human), UniProt P54646); design: dose or concentration left out as unconfirmed
# Aurora-A(h) = Aurora-A(h) (Homo sapiens (Human), UniProt O14965); design: dose or concentration left out as unconfirmed
# CDK13/cyclinK(h) = CDK13/cyclinK(h) (Homo sapiens (Human), UniProt Q14004); design: dose or concentration left out as unconfirmed
# CDKL4(h) = CDKL4(h) (Homo sapiens (Human), UniProt Q5MAI5); design: dose or concentration left out as unconfirmed
# CK1γ3(h) = CK1γ3(h) (Homo sapiens (Human), UniProt Q9Y6M4); design: dose or concentration left out as unconfirmed
# Chain of CK1γ3(h) (Q9Y6M4 whole entry): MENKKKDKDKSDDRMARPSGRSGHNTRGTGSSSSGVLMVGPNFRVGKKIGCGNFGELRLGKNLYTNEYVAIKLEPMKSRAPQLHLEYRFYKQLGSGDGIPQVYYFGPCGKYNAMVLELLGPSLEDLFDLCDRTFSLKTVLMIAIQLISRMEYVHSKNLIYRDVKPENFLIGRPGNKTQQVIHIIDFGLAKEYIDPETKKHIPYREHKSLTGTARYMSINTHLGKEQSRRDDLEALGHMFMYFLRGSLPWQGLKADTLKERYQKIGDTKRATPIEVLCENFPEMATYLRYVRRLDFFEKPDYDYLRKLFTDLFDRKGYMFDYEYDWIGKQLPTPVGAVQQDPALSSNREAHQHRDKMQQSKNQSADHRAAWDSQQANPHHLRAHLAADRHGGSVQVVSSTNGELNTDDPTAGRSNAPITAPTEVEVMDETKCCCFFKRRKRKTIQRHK
# CK1δ(h) = CK1δ(h) (Homo sapiens (Human), UniProt P48730); design: dose or concentration left out as unconfirmed
# CSK(h) = CSK(h) (Homo sapiens (Human), UniProt P41240); design: dose or concentration left out as unconfirmed
# DAPK1(h) = DAPK1(h) (Homo sapiens (Human), UniProt P53355); design: dose or concentration left out as unconfirmed
# DCAMKL1(h) = DCAMKL1(h) (Homo sapiens (Human), UniProt O15075); design: dose or concentration left out as unconfirmed
# EphA3(h) = EphA3(h) (Homo sapiens (Human), UniProt P29320); design: dose or concentration left out as unconfirmed
# EphB4(h) = EphB4(h) (Homo sapiens (Human), UniProt P54760); design: dose or concentration left out as unconfirmed
# Fgr(h) = Fgr(h) (Homo sapiens (Human), UniProt P09769); design: dose or concentration left out as unconfirmed
# Chain of Fgr(h) (P09769 whole entry): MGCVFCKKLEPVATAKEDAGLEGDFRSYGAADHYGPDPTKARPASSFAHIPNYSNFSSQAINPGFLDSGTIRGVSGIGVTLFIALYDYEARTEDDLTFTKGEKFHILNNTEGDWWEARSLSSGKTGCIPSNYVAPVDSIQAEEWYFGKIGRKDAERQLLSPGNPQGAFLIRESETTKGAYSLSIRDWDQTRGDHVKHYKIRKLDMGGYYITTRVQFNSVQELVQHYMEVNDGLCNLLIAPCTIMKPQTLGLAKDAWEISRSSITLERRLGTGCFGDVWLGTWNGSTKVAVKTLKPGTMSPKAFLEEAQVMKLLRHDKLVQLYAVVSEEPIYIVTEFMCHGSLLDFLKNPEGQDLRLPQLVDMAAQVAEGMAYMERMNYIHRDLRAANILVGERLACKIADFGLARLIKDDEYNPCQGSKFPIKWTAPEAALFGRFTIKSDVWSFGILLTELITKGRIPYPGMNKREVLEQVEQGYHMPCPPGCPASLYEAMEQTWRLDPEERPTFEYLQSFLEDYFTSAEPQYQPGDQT
# GRK5(h) = GRK5(h) (Homo sapiens (Human), UniProt P34947); design: dose or concentration left out as unconfirmed
# Chain of GRK5(h) (P34947 whole entry): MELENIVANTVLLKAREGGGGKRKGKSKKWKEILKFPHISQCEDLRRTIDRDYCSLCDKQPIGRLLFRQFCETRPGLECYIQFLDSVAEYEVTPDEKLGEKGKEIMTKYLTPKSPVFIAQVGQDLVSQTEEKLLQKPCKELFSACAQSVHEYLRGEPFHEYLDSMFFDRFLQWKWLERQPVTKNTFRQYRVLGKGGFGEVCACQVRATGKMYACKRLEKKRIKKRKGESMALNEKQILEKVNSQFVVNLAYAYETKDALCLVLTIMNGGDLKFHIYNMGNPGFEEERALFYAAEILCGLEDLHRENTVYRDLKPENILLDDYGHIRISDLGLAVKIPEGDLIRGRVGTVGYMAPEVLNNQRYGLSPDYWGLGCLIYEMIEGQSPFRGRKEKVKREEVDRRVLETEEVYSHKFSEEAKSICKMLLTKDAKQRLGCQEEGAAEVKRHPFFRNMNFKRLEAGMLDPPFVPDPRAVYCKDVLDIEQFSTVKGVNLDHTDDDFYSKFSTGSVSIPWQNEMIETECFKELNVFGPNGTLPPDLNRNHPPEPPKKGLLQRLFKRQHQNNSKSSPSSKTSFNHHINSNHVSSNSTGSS
# Haspin(h) = Haspin(h) (Homo sapiens (Human), UniProt Q8TF76); design: dose or concentration left out as unconfirmed
# HRI(h) = HRI(h) (Homo sapiens (Human), UniProt Q9BQI3); design: dose or concentration left out as unconfirmed
# IGF-1R(h), activated = IGF-1R(h), activated (Homo sapiens (Human), UniProt P08069); design: dose or concentration left out as unconfirmed
# IRR(h) = IRR(h) (Homo sapiens (Human), UniProt P14616); design: dose or concentration left out as unconfirmed
# JNK1α1(h) = JNK1α1(h) (Homo sapiens (Human), UniProt P45983); design: dose or concentration left out as unconfirmed
# MAPK1(h) = MAPK1(h) (Homo sapiens (Human), UniProt P27361); design: dose or concentration left out as unconfirmed
# MLK4(h) = MLK4(h) (Homo sapiens (Human), UniProt Q5TCX8); design: dose or concentration left out as unconfirmed
# Chain of MLK4(h) (Q5TCX8 whole entry): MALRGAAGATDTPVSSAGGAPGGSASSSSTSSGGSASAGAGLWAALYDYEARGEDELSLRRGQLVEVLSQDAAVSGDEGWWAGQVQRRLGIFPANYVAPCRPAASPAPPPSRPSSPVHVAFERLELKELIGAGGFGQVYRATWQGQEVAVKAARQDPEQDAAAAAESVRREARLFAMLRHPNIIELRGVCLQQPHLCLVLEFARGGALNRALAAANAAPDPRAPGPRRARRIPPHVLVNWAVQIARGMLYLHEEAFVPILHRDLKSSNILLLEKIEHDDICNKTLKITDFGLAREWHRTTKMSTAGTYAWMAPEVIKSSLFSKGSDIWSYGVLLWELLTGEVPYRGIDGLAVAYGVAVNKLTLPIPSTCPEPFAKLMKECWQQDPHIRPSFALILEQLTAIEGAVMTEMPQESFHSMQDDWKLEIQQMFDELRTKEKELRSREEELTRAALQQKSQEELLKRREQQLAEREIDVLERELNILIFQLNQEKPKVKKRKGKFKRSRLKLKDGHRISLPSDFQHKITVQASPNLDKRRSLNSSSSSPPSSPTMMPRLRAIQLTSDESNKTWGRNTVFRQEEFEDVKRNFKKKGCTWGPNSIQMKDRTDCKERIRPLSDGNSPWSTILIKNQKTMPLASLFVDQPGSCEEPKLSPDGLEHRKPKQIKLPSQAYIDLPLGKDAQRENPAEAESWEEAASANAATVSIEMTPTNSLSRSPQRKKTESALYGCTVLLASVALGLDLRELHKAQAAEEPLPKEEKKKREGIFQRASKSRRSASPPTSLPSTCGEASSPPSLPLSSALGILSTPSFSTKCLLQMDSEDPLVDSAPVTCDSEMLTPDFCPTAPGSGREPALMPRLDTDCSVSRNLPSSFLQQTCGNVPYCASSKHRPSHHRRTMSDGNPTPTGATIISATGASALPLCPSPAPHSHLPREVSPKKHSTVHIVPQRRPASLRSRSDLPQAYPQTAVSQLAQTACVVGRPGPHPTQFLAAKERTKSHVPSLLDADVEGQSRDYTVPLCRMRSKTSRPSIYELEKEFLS
# PAK1(h) = PAK1(h) (Homo sapiens (Human), UniProt Q13153); design: dose or concentration left out as unconfirmed
# PEK(h) = PEK(h) (Homo sapiens (Human), UniProt Q9NZJ5); design: dose or concentration left out as unconfirmed
# Chain of PEK(h) (Q9NZJ5 30-1116): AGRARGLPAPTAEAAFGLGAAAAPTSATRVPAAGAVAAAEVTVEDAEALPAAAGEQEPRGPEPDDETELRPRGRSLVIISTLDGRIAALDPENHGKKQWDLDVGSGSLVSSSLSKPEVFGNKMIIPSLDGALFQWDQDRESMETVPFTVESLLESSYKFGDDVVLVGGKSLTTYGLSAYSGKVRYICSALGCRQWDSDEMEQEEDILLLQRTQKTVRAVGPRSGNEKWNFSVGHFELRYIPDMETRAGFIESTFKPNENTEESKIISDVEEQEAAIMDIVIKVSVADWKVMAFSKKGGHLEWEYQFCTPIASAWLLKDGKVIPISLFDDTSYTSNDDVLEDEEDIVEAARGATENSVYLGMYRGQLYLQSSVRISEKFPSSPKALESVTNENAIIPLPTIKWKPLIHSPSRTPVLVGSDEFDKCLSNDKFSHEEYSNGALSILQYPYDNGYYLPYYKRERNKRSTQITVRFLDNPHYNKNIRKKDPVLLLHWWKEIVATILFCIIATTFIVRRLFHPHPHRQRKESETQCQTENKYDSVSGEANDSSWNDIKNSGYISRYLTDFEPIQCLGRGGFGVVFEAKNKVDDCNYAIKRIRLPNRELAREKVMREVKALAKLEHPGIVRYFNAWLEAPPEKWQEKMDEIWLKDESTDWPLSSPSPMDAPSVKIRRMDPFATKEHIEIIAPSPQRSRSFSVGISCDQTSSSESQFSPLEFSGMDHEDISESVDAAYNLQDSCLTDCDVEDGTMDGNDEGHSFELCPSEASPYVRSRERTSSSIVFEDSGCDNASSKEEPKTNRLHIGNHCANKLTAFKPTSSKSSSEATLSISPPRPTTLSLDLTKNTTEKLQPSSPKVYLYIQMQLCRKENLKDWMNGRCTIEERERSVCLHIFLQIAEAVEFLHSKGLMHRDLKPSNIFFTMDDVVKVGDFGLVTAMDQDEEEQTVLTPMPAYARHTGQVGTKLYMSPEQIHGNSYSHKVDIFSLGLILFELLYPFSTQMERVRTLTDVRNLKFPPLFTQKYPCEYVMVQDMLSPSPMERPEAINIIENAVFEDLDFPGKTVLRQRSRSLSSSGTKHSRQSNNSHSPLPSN
# PKAcβ(h) = PKAcβ(h) (Homo sapiens (Human), UniProt P22694); design: dose or concentration left out as unconfirmed
# PKCα(h) = PKCα(h) (Homo sapiens (Human), UniProt P17252); design: dose or concentration left out as unconfirmed
# Ron(h) = Ron(h) (Homo sapiens (Human), UniProt Q04912); design: dose or concentration left out as unconfirmed
# Rsk4(h) = Rsk4(h) (Homo sapiens (Human), UniProt Q9UK32)
# STK32B(h) = STK32B(h) (Homo sapiens (Human), UniProt Q9NY57); design: dose or concentration left out as unconfirmed
# Chain of STK32B(h) (Q9NY57 whole entry): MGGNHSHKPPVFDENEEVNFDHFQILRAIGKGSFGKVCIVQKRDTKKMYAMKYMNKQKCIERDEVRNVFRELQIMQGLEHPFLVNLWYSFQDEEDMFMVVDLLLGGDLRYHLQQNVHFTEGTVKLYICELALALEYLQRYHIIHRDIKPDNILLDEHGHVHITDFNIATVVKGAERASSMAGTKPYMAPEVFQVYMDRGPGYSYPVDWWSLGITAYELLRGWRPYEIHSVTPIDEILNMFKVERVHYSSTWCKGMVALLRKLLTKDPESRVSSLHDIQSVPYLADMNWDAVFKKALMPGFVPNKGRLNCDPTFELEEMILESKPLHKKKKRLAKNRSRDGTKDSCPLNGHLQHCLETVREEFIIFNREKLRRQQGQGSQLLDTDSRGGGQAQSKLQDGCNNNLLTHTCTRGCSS
# STK33(h) = STK33(h) (Homo sapiens (Human), UniProt Q9BYT3); design: dose or concentration left out as unconfirmed
# Chain of STK33(h) (Q9BYT3 whole entry): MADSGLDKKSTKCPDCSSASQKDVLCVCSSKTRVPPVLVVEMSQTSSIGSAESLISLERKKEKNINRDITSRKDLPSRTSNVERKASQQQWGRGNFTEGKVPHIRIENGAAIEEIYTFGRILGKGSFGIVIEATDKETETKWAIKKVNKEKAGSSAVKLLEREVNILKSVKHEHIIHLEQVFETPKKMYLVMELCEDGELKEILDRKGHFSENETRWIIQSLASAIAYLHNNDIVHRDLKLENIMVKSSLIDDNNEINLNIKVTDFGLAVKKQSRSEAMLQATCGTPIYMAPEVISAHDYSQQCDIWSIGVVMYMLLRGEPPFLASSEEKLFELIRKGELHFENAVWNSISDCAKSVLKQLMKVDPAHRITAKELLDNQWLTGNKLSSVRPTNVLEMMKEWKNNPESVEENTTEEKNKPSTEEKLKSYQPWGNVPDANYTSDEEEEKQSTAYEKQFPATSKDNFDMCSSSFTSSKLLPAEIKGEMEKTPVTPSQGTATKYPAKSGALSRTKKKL
# TAK1(h) = TAK1(h) (Homo sapiens (Human), UniProt O43318); design: dose or concentration left out as unconfirmed
# TrkC(h) = TrkC(h) (Homo sapiens (Human), UniProt Q16288); design: dose or concentration left out as unconfirmed
# TYK2(h) = TYK2(h) (Homo sapiens (Human), UniProt P29597); design: dose or concentration left out as unconfirmed
# VRK1(h) = VRK1(h) (Homo sapiens (Human), UniProt Q99986); design: dose or concentration left out as unconfirmed
# Chain of VRK1(h) (Q99986 whole entry): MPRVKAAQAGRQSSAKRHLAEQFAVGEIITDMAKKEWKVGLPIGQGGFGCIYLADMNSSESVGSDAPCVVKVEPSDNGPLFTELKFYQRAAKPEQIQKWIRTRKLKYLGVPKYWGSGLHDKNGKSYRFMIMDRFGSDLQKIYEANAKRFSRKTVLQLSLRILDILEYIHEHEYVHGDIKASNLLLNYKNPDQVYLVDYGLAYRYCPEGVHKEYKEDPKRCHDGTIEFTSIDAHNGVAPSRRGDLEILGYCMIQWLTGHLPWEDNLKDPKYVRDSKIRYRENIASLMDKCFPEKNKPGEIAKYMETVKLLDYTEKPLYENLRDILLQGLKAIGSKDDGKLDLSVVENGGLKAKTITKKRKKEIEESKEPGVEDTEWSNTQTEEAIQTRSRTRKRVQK
# Wee1B(h) = Wee1B(h) (Homo sapiens (Human), UniProt P0C1S8); design: dose or concentration left out as unconfirmed
smiles,measurement,setting,value
"Cc1cc2c(-c3ccc(NC(=O)[C@H](N)CC(C)(C)C)cc3C)ccnc2[nH]1 [Compound F-90, (2R)-2-Amino-4,4-dimethyl-N-[3-methyl-4-(2-methyl-1H-pyrrolo[2,3-b]pyridin-4-yl)phenyl]pentanamide]",% Activity,AMPKα2(h),117%
same,% Activity,Aurora-A(h),97%
same,% Activity,CDK13/cyclinK(h),99%
same,% Activity,CDKL4(h),104%
same,% Activity,CK1γ3(h),84%
same,% Activity,CK1δ(h),96%
same,% Activity,CSK(h),92%
same,% Activity,DAPK1(h),82%
same,% Activity,DCAMKL1(h),95%
same,% Activity,EphA3(h),79%
same,% Activity,EphB4(h),107%
same,% Activity,Fgr(h),97%
same,% Activity,GRK5(h),97%
same,% Activity,Haspin(h),140%
same,% Activity,HRI(h),80%
same,% Activity,"IGF-1R(h), activated",93%
same,% Activity,IRR(h),110%
same,% Activity,JNK1α1(h),110%
same,% Activity,MAPK1(h),95%
same,% Activity,MLK4(h),112%
same,% Activity,PAK1(h),95%
same,% Activity,PEK(h),91%
same,% Activity,PKAcβ(h),12%
same,% Activity,PKCα(h),92%
same,% Activity,Ron(h),111%
same,% Activity,Rsk4(h),101%
same,% Activity,STK32B(h),115%
same,% Activity,STK33(h),98%
same,% Activity,TAK1(h),91%
same,% Activity,TrkC(h),86%
same,% Activity,TYK2(h),103%
same,% Activity,VRK1(h),99%
same,% Activity,Wee1B(h),88%
